Measured values from patent US11197857B2, “Combination therapy” (GlaxoSmithKline Intellectual Property Development Limited, priority 2016, dated 2021).
pEC50, pIC50: −log10 of the molar value. Where two headings read alike, the source gives them in different places.

How the values were obtained:
[1] = tested on: breast cancer cell lines (SKBR3, MDA-MB-468, MCF-7, ZR-75-1); assay: longer-term (10-12 day) growth/death assay; type: cell-based; conditions: SKBR3, MDA-MB-468 and MCF-7 cells, prolonged exposure (7-10 days)
[2] = target: PRMT5/MEP50 (Homo sapiens, UniProt O14744); assay: PRMT5/MEP50 radioactive assay (3H transfer from SAM to H4 peptide / protein substrate); type: biochemical; conditions: close analogs of Compound C
[3] = tested on: 240 cancer cell lines; assay: 10-day 2D growth assay, 240 cell lines; type: cell-based
Method: FIG. 34: Compound B gIC50 values in cancer cell lines (n=240) from 10 day 2D growth assay. ALL-acute lymphoblastic leukemia, AML-acute myeloid leukemia, CML-chronic myeloid leukemia, DLBCL-diffuse large B-cell lymphoma, HL-Hodgkin lymphoma, HN-head and neck cancer, MM-multiple myeloma, NHL-non-Hodgkin lymphoma, NSCLC-non-small cell lung cancer, PEL-primary effusion lymphoma, SCLC-small cell lung cancer, TCL-T-cell lymphoma.
The tumor types with median gIC50<100 nM were acute myeloid leukemia (AML), chronic myelogenous leukemia (CML), Hodgkin's Lymphoma (HL), multiple myeloma (MM), breast, glioma, kidney, melanoma, and ovarian cancer.

[4] = tested on: 19 enzymes: Type I and Type II PRMTs and lysine methyltransferases (KMTs); assay: methyltransferase selectivity panel; type: biochemical; conditions: for selectivity over other methyltransferases: PRMT5 tool compounds
Source text: FIG. 31: Phylogenetic tree highlighting the methyltransferases tested in the selectivity panel. […] PRMT9 is shown for relationship purposes only within the family tree and was not evaluated in the panel. Figure adapted from Richon V M. et al.
PRMT9/FBXO11, which is the other Type II PRMT and the only PRMT to lack the THW loop, was not included due to the lack of a functional enzyme assay.

[5] = tested on: Z-138 MCL xenograft model; assay: Z138 xenograft 21-day efficacy and PD; type: in vivo; conditions: for TGI: 21-day
Method: (§1) B. Quantified SDMA western data from tumors harvested at the end of the efficacy study (3 hours post last dose).

[6] = tested on: MCL cell lines; assay: 6-day growth/death CTG assay in MCL cell lines; type: cell-based; conditions: for pIC50: read-out: gIC50
[7] = tested on: 4 breast cancer lines; assay: propidium iodide FACS cell cycle analysis; type: cell-based; conditions: after 7-10 days of treatment
[8] = tested on: MDM4 splicing, SDMA, p53 and p21 in MCL lines; assay: MDM4 splicing (RT-PCR) and SDMA/p53/p21 western; type: cell-based
Method: To understand whether p53 activation is associated with MDM4 isoform switching, MDM4 alternative splicing was analyzed. […] The role of the p53 pathway in the biology of the response of p53 wild-type MCL cells to PRMT5 inhibition is being evaluated.

[9] = tested on: Z138 MCL cells; assay: 6-day growth/death assay; type: cell-based; conditions: Z138, 6-day
[10] = tested on: SDMA in a panel of 5 MCL lines; assay: SDMA inhibition in MCL panel; conditions: read-out: SDMA IC50
Source text: (B) SDMA IC50 values in a panel of MCL lines (EPIZYME data, day 4).

[11] = tested on: gene expression in Z138 cells; assay: qPCR gene expression (11 genes); type: cell-based; conditions: Homo sapiens, Z-138, 96 h, day 4
[12] = tested on: panel of cancer cell lines; assay: cells; type: cell-based
Source text: DLBCL-diffuse large B-cell lymphoma, GBM-glioblastoma, MCL-mantle cell lymphoma, MM-multiple myeloma
The cell lines were selected to represent tumor types where PRMT5 activity has been reported to regulate key pathways and/or cell growth and survival (such as lymphoma and MCL, glioma, breast and lung cancer lines).

[13] = tested on: SDMA in Z138 cells; assay: SDMA ELISA; type: cell-based; conditions: Homo sapiens
[14] = tested on: Maver-1 MCL xenograft model; assay: Maver-1 xenograft efficacy and PD; type: in vivo; conditions: for TGI: day 18
Method: as §1

[15] = tested on: GBM cell lines; assay: 2D 6-day growth/death CTG assay; type: cell-based
[16] = tested on: MDA-MB-468 triple negative breast cancer xenograft model; assay: MDA-MB-468 xenograft efficacy and PK/PD; type: in vivo
Method: Next, the efficacy of PRMT5 inhibition was evaluated in in vivo models of breast cancer.

[17] = tested on: patient-derived tumor models and cell lines (n=73); assay: soft agar 3D colony formation assay; type: cell-based; conditions: n=73 models
Source text: FIG. 35: Compound E relative IC50 values from 8-13 day colony formation assay performed in patient-derived and cell line tumor models.
Tumor types with the lowest median IC50 values were large cell lung cancer, breast, kidney and glioma.

PRMT5/MEP50, sequence (O14744 whole entry): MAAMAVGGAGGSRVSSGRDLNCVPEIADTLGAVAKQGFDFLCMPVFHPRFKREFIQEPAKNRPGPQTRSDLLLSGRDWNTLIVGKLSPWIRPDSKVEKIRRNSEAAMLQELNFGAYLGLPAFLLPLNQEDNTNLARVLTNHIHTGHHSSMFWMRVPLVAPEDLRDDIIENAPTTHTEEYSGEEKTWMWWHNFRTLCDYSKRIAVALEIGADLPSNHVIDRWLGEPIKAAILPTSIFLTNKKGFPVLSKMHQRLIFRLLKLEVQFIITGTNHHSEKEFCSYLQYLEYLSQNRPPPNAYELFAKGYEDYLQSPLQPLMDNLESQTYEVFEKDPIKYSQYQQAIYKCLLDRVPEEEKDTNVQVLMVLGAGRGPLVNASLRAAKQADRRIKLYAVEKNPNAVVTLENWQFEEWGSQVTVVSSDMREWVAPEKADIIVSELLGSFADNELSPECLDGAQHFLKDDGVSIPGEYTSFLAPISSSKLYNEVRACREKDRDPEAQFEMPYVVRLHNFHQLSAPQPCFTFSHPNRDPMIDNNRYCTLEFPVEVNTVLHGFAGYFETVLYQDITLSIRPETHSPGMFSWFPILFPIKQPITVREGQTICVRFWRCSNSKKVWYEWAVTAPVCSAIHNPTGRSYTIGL
PRMT5/MEP50, sequence (Q9BQA1 whole entry partner): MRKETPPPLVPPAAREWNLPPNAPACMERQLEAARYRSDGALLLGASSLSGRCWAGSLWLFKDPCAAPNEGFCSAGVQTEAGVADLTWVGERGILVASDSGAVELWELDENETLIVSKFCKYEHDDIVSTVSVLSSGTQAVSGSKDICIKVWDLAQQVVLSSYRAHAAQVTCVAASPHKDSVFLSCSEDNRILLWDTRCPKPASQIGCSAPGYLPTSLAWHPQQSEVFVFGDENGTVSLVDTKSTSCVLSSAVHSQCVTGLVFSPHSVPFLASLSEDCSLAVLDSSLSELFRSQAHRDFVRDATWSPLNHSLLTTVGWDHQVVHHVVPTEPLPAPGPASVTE

For `O=C(NC[C@H](O)CN1CCc2ccccc2C1)c1ccnc(NC2CCC2)c1` [Compound B], which nature of response [1] is on record?
The nature of response was “cytotoxic response”.

What about the “inhibitory potency compared with Compound C” value [2] of the same compound?
The value was “similar”.

What about the pIC50 ([3]; AML, CML, HL, MM, breast, glioma, kidney, melanoma, ovarian cancer, read-out: median gIC50) of the same compound?
Its pIC50 is greater than 7.00.

What about the pIC50 ([3]; majority of cell lines, read-out: gIC50) of the same compound?
The pIC50 was greater than 6.00.

And the “selectivity over other methyltransferases” value [4]?
Its value is “Selectivity for PRMT5/MEP50 over the other methyltransferases”.

For `CC(=O)N1CCC(Nc2cc(C(=O)NC[C@H](O)CN3CCc4ccccc4C3)ncn2)CC1` [Compound C], which “reduction of the methyl mark (SDMA western, tumors)” value ([5]; all dose groups) is on record?
Its value is “greater than 70%”.

And the body weight loss ([5]; all groups in all efficacy studies presented)?
Its body weight loss is “no body weight loss”.

And the TGI ([5]; lowest dose group, 25 mg/kg BID)?
The TGI was 40%.

What about the TGI ([5]; top 100 mg/kg BID dose group) of the same compound?
Its TGI is greater than 90%.

And the “reduction of the methyl mark (SDMA western, tumors)” value ([5]; top dose groups)?
Its value is greater than 98%.

What about the pIC50 ([6]; 1 cell line of the MCL panel) of the same compound?
The pIC50 was less than 6.00.

What about the pIC50 ([6]; 2 lines of the MCL panel) of the same compound?
Its pIC50 is no less than 7.00.

And the pIC50 ([6]; 3 cell lines of the MCL panel)?
The pIC50 was greater than 8.00.

What about the sensitivity ([6]; Mino, Jeko-1 (ibrutinib sensitive lines)) of the same compound?
Its sensitivity is “only moderately sensitive”.

What about the “gIC50” value ([6]; Z-138, Maver-1 and JVM-2) of the same compound?
Its value is “low”.

What about the “breast cancer lines with induction of cell death (increase in <2N)” value [7] of the same compound?
Its value is 3 out of 4.

And the nature of response [1]?
Its nature of response is “cytotoxic response”.

And the MDM4 isoform switching ([8]; Z138 and JVM-2 cells (both p53 wild-type))?
Its MDM4 isoform switching is “induced MDM4 isoform switching”.

And the “concentrations at which SDMA levels were undetectable by Western blot” value ([8]; Z138 cells)?
The value was “above 8 nM”.

What about the “concentrations at which changes in MDM4 splicing and p53/p21 protein expression were apparent” value ([8]; Z138 cells) of the same compound?
Its value is “above 8 nM”.

What about the “p53 and p21 expression” value ([8]; Z138 cells, 200 nM Compound C) of the same compound?
The value was “increased p53 and p21 expression to similar levels”.

What about the pIC50 ([9]; Homo sapiens, Z-138, 144 h, read-out: gIC50) of the same compound?
The pIC50 was 8.57.

What about the gIC95 [9] of the same compound?
Its gIC95 is 82 nM.

And the gIC100 [9]?
The gIC100 was 880 nM.

What about the pIC50 [10] of the same compound?
The pIC50 was 7.85 to 9.52.

And the pEC50 [11]?
Its pEC50 is 6.48 to 7.66.

What about the pIC50 ([12]; majority of cell lines tested, read-out: gIC50) of the same compound?
Its pIC50 is greater than 6.00.

And the gIC50 ([12]; most sensitive lymphoma lines (MCL and DLBCL))?
The gIC50 was “single digit nM range”.

And the pEC50 ([13]; Z-138, 24 h, day 1)?
The pEC50 was 8.14.

And the pEC50 ([13]; Z-138, 72 h, day 3)?
The pEC50 was 8.63.

And the pIC50 ([13]; Z-138, 72 h, day 3)?
The pIC50 was 8.32.

And the EC90 ([13]; Z-138, 72 h, day 3, read-out: SDMA EC90 (complete inhibition above))?
Its EC90 is 19 nM.

And the “reduction of the methyl mark (SDMA, tumors)” value ([14]; all dose groups)?
The value was 80-95%.

What about the TGI ([14]; lowest dose group) of the same compound?
The TGI was 50%.

What about the TGI ([14]; top dose groups) of the same compound?
The TGI was greater than 90%.

And the pIC50 ([15]; 144 h, GBM cell lines, 6-day, read-out: gIC50)?
The pIC50 was 4.66 to 7.40.

And the nature of response ([15]; with the exception of the SF539 cell line)?
The nature of response was “largely cytostatic”.

And the pIC50 ([4]; any of the 19 enzymes)?
The pIC50 was less than 4.40.

And the “potency for any other tested enzyme (FIG. 31)” value ([4]; phylogenetic tree symbol class)?
Its value is > 10^−5 M.

What about the SDMA inhibition ([16]; 100 mg/kg BID) of the same compound?
The SDMA inhibition was “greater than 90%”.

And the TGI ([16]; 100 mg/kg BID)?
Its TGI is 83%.

What about the SDMA inhibition ([16]; 100 mg/kg QD) of the same compound?
The SDMA inhibition was “less than 80%”.

And the efficacy ([16]; 100 mg/kg QD)?
The efficacy was “not efficacious”.

For `O=C(NC[C@H](O)CN1CCc2ccccc2C1)c1cc(NC2COC2)ncn1` [Compound E], which “share of models with relative growth IC50 values below 1 μM” value [17] is on record?
The value was 37%.

What about the “inhibitory potency compared with Compound C” value [2] of the same compound?
Its value is “similar”.

What about the “selectivity over other methyltransferases” value [4] of the same compound?
The value was “Selectivity for PRMT5/MEP50 over the other methyltransferases”.

What does the source list for `CC(=O)N1CCC(Nc2cc(C(=O)NC[C@H](O)CN3CCc4ccccc4C3)ccn2)CC1` [Compound F]?
inhibitory potency compared with Compound C [2]: similar; selectivity over other methyltransferases [4]: Selectivity for PRMT5/MEP50 over the other methyltransferases

For `COc1ccc(C2=N[C@@H](c3ccc(Cl)cc3)[C@@H](c3ccc(Cl)cc3)N2C(=O)N2CCNC(=O)C2)c(OC(C)C)c1` [Nutlin-3, reference compound], which “p53 and p21 expression” value ([8]; Z138 cells, 5 μM MDM2 inhibitor (Nutlin-3)) is on record?
Its value is “increased p53 and p21 expression to similar levels”.
